# Test results published in US20250129028A1, “COMPOUNDS AND METHODS FOR YAP/TEAD MODULATION AND INDICATIONS THEREFOR” (Opna Bio SA, priority 2022, published 2025).
# Test system: TEAD-dependent transcription
# Test: TEAD-dependent transcription cell-based reporter assay (MSTO-211H+12XGTIIC luciferase)
# Design: species or system human
# Settings: Homo sapiens; MSTO-211H+12XGTIIC cell line, luciferase signal normalized to cell viability, 24 hours compound incubation; read-out: MSTO-211H GMean IC50 (uM) Cell Assay Reporter Cell Variant: TEAD
# Method in brief: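 MSTO-211H mesothelioma cells stably carrying a 12xGTIIC TEAD-response-element luciferase reporter, treated with serial compound dilutions for 24 h at 37 °C. Luminescence normalized to CellTiter-Fluor viability signal; % inhibition versus DMSO and 20 μM K-975 controls, IC50 by nonlinear regression.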
row,Structure (SMILES),IC50 [µM]
1,"O=C(C1CCS(=O)(=O)CC1)N1CCc2ccc(Oc3ccc(C(F)(F)F)c(F)c3)cc2C1 [P-0143, (1,1-dioxidotetrahydro-2H-thiopyran-4-yl)(7-(3-fluoro-4-(trifluorometh-yl)phenoxy)-3,4-dihydro-isoquinolin-2(1H)-yl)-methanone]",0.001 to 10
2,"O=C(C1CNC1)N1CCc2ccc(Oc3ccc(C(F)(F)F)c(F)c3)cc2C1 [P-0144, azetidin-3-yl(7-(3-fluoro-4-(trifluoromethyl)phen-oxy)-3,4-dihydroisoquin-olin-2(1H)-yl)methanone]",0.001 to 10
3,"O=C(C1CCNC1)N1CCc2ccc(Oc3ccc(C(F)(F)F)c(F)c3)cc2C1 (stereo not shown) [P-0145, (7-(3-fluoro-4-(trifluoro-methyl)phenoxy)-3,4-dihydroisoquinolin-2(1H)-yl)(pyrrolidin-3-yl)methanone]",0.001 to 10
4,"O=C(C1CCCNC1)N1CCc2ccc(Oc3ccc(C(F)(F)F)c(F)c3)cc2C1 (stereo not shown) [P-0146, (7-(3-fluoro-4-(trifluoro-methyl)phenoxy)-3,4-dihydroisoquinolin-2(1H)-yl)(piperidin-3-yl)methanone]",0.001 to 10
5,"O=C(C1CCNCC1)N1CCc2ccc(Oc3ccc(C(F)(F)F)c(F)c3)cc2C1 [P-0147, (7-(3-fluoro-4-(trifluoro-methyl)phenoxy)-3,4-dihydroisoquinolin-2(1H)-yl)(piperidin-4-yl)-methanone]",0.001 to 10
6,"O=C(Cc1nnn[nH]1)N1CCc2ccc(Oc3ccc(C(F)(F)F)c(F)c3)cc2C1 [P-0148, 1-(7-(3-fluoro-4-(trifluoromethyl)phen-oxy)-3,4-dihydroisoquin-olin-2(1H)-yl)-2-(1H-tetrazol-5-yl)ethan-1-one]",0.001 to 10
7,"O=C(Cc1ccn[nH]1)N1CCc2ccc(Oc3ccc(C(F)(F)F)c(F)c3)cc2C1 [P-0149, 1-(7-(3-fluoro-4-(trifluoromethyl)phen-oxy)-3,4-dihydroiso-quinolin-2(1H)-yl)-2-(1H-pyrazol-5-yl)-ethan-1-one]",0.001 to 10
8,"O=C(Cc1cnc[nH]1)N1CCc2ccc(Oc3ccc(C(F)(F)F)c(F)c3)cc2C1 [P-0150, 1-(7-(3-fluoro-4-(trifluoromethyl)phen-oxy)-3,4-dihydroisoquin-olin-2(1H)-yl)-2-(1H-imidazol-5-yl)ethan-1-one]",0.001 to 10
9,"O=C(CCc1cnc[nH]1)N1CCc2ccc(Oc3ccc(C(F)(F)F)c(F)c3)cc2C1 [P-0151, 1-(7-(3-fluoro-4-(trifluoromethyl)phen-oxy)-3,4-dihydroisoquin-olin-2(1H)-yl)-3-(1H-imidazol-5-yl)propan-1-one]",0.001 to 10
10,"O=C(Cc1ncc[nH]1)N1CCc2ccc(Oc3ccc(C(F)(F)F)c(F)c3)cc2C1 [P-0152, 1-(7-(3-fluoro-4-(trifluoromethyl)phen-oxy)-3,4-dihydroisoquin-olin-2(1H)-yl)-2-(1H-imidazol-2-yl)ethan-1-one]",0.001 to 10
11,"O=C(CCn1cncn1)N1CCc2ccc(Oc3ccc(C(F)(F)F)c(F)c3)cc2C1 [P-0153, 1-(7-(3-fluoro-4-(trifluoromethyl)phen-oxy)-3,4-dihydroisoquin-olin-2(1H)-yl)-3-(1H-1,2,4-triazol-1-yl)propan-1-one]",0.001 to 10
12,"C=CC(=O)Nc1nc(CC(=O)N2CCc3ccc(Oc4ccc(C(F)(F)F)c(F)c4)cc3C2)cs1 [P-0154, N-(4-(2-(7-(3-fluoro-4-(trifluoromethyl)phen-oxy)-3,4-dihydroisoquin-olin-2(1H)-yl)-2-oxoeth-yl)thiazol-2-yl)acrylamide]",0.001 to 10
13,"Nc1nc(CC(=O)N2CCc3ccc(Oc4ccc(C(F)(F)F)c(F)c4)cc3C2)cs1 [P-0155, 2-(2-aminothiazol-4-yl)-1-(7-(3-fluoro-4-(trifluoromethyl)phen-oxy)-3,4-dihydroisoquin-olin-2(1H)-yl)ethan-1-one]",0.001 to 10
14,"CN(C)C(N1CCc2ccc(Oc3ccc(C(F)(F)F)cc3)cc2C1)=[N+](C)C [P-0156, N-((dimethylamino)(7-(4-(trifluoromethyl)phen-oxy)-3,4-dihydroisoquin-olin-2(1H)-yl)methylene)-N-methylmethanaminium]",0.001 to 10
15,"C=CS(=O)(=O)N1CC(C(=O)N2CCc3ccc(Oc4ccc(C(F)(F)F)c(F)c4)cc3C2)C1 [P-0157, (7-(3-fluoro-4-(trifluoromethyl)phenoxy)-3,4-dihydroisoquinolin-2(1H)-yl)(1-(vinylsulfonyl)azetidin-3-yl)methanone]",0.001 to 10
16,"C=CS(=O)(=O)N1CCC(C(=O)N2CCc3ccc(Oc4ccc(C(F)(F)F)c(F)c4)cc3C2)C1 (stereo not shown) [P-0158, (7-(3-fluoro-4-(trifluoro-methyl)phenoxy)-3,4-dihydroisoquinolin-2(1H)-yl)(1-(vinylsul-fonyl)pyrrolidin-3-yl)-methanone]",0.001 to 10
17,C=CS(=O)(=O)N1CCC(C(=O)N2CCc3ccc(Oc4ccc(C(F)(F)F)c(F)c4)cc3C2)CC1 [P-0159],0.001 to 10
18,"O=C(Cc1n[nH]c(=O)[nH]1)N1CCc2ccc(Oc3ccc(C(F)(F)F)c(F)c3)cc2C1 [P-0160, 5-(2-(7-(3-fluoro-4-(trifluoromethyl)phen-oxy)-3,4-dihydroisoquin-olin-2(1H)-yl)-2-oxoeth-yl)-2,4-dihydro-3H-1,2,4-triazol-3-one]",0.001 to 10
19,"C=CC(=O)Nc1ncc(CC(=O)N2CCc3ccc(Oc4ccc(C(F)(F)F)c(F)c4)cc3C2)s1 [P-0163, N-(5-(2-(7-(3-fluoro-4-(trifluoromethyl)phen-oxy)-3,4-dihydroisoquin-olin-2(1H)-yl)-2-oxoeth-yl)thiazol-2-yl)acrylamide]",0.001 to 10
20,"O=C(Cc1c[nH]cn1)N1CCc2ccc(Oc3ccc(C(F)(F)F)cc3)cc2C1 [P-0164, 2-(1H-imidazol-4-yl)-1-(7-(4-(trifluoromethyl)-phenoxy)-3,4-dihydroiso-quinolin-2(1H)-yl)ethan-1-one]",0.001 to 10
21,"O=C(Cc1ncc[nH]1)N1CCc2ccc(Oc3ccc(C(F)(F)F)cc3)cc2C1 [P-0165, 2-(1H-imidazol-2-yl)-1-(7-(4-(trifluoromethyl)-phenoxy)-3,4-dihydroiso-quinolin-2(1H)-yl)ethan-1-one]",0.001 to 10
22,"O=C=CCC(=O)N1CCc2ccc(Oc3ccc(C(F)(F)F)cc3)cc2C1 [P-0166, 4-(7-(4-(trifluoromethyl)-phenoxy)-3,4-dihydroiso-quinolin-2(1H)-yl)but-1-ene-1,4-dione]",0.001 to 10
23,"CC(=O)N1CC(CC2c3cc(Oc4ccc(C(F)(F)F)cc4)ccc3CCN2C(=O)CCS(C)(=O)=O)C1 (stereo not shown) [P-0200, 1-(1-((1-acetylazetidin-3-yl)methyl)-7-(4-(trifluoromethyl)phen-oxy)-3,4-dihydroisoquin-olin-2(1H)-yl)-3-(methyl-sulfonyl)propan-1-one]",0.001 to 10
24,"CS(=O)(=O)CCC(=O)N1CCc2ccc(Oc3ccc(C(F)(F)F)cc3)cc2C1CC1CN(c2ccccn2)C1 (stereo not shown) [P-0201, 3-(methylsulfonyl)-1-(1-((1-(pyridin-2-yl)azeti-din-3-yl)methyl)-7-(4-(trifluoromethyl)phen-oxy)-3,4-dihydroisoquin-olin-2(1H)-yl)propan-1-one]",0.001 to 10
25,"CS(=O)(=O)CCC(=O)N1CCc2ccc(Oc3ccc(C(F)(F)F)cc3)cc2C1CC1CN(C(=O)CO)C1 (stereo not shown) [P-0202, 1-(1-((1-(2-hydroxyacet-yl)azetidin-3-yl)methyl)-7-(4-(trifluoromethyl)-phenoxy)-3,4-dihydro-isoquinolin-2(1H)-yl)-3-(methylsulfonyl)-propan-1-one]",0.001 to 10
